Patent US20210379035A1, “Methods Of Treating Fabry Patients Having Renal Impairment” (Amicus Therapeutics, Inc., priority 2017, published 2021)

Key:
[1] = Single-dose renal impairment PK and safety study in non-Fabry subjects (Example 1); type: in vivo, human; details: for half-life: human, plasma, po, 150 mg, read-out: t1/2 in plasma, arithmetic mean [min, max] (converted); for half-life / increase of mean plasma migalastat AUC0-∞ compared to healthy control subjects: single oral 150 mg migalastat HCl
Method: The eGFR was estimated by the Cockcroft-Gault equation per the FDA Guidance for renal impairment studies.
Volunteers were enrolled into two cohorts stratified for renal function calculated using the Cockcroft-Gault equation for creatinine clearance (CLCR). Subjects were assigned to groups based on an estimated CLCR at screening as calculated using the Cockcroft-Gault equation.
Subjects were grouped according to degree of renal dysfunction: mild (CLCR≥60 and <90 mL/min), moderate (CLCR≥30 and <60 mL/min), or severe (CLCR≥15 and <30 mL/min)

Fabry patients [2] = assay: Long-term analysis of 12 patients that completed multiple studies: eGFR; type: in vivo, human
Excerpt: In addition to the studies described above, other patients also received migalastat therapy in other studies such as dose-finding studies and/or long-term extension studies. […] 12 patients that completed multiple studies were further analyzed. Linear regression was used to calculate the annualized rate of change in […] from baseline.

[3] = Plasma and urine PK in healthy volunteers and Fabry patients (single and multiple ascending dose studies); type: in vivo, human; details: for Mean percent of the dose recovered in urine: SAD study
Fabry patients [4] = assay: ERT-naïve study: renal function (eGFR); type: in vivo, human; details: for Annualized Change in eGFRCKD-EPI, mean ± SE: ERT-Naïve; for mean±SEM annualized rate of change of eGFRCKD-EPI: ERT-naïve study, baseline to 18/24 months
Method: One study was a 24-month trial, including a 6-month double-blind, placebo-controlled period, in 67 ERT-naïve patients. The other study was an active-controlled, 18-month trial in 57 ERT-experienced patients with a 12-month open-label extension (OLE). Both the ERT-naïve and ERT-experienced studies included Fabry patients having an eGFR of ≥30 mL/min/1.73 m^2. The study designs for these studies are shown in FIGS. 10A-B. In the ERT-naïve study, the primary efficacy parameter was GL-3 inclusions per kidney interstitial capillary. […] A further analysis of data from these studies examined annualized change in […], WBC α-Gal A activity and plasma lyso-Gb3 levels based on renal function at baseline. The results for each renal subgroup are shown in Table 9 below, with the ERT-naïve study subgroups based on […] and the ERT-experienced study subgroups based on mGFRiohexol.

cardiac repolarization = details: 150 mg and 1250 mg single doses; cited from earlier work

SMILES: OC[C@H]1NC[C@H](O)[C@@H](O)[C@H]1O [migalastat, (2R,3S,4R,5S)-2-(hydroxymethyl) piperdine-3,4,5-triol]
- half-life ([1]; mild renal impairment): 7.7 h
- half-life ([1]; moderate renal impairment): 22.2 h
- half-life ([1]; normal renal function): 6.4 h
- half-life ([1]; severe renal impairment): 32.3 h
- Plasma migalastat concentration ([1]; non-Fabry, moderate impairment, Pre-dose (0 h), same value as 48 h): 64.5 ng/mL
- CL/F ([1]; single 150 mg migalastat HCl, non-Fabry, Mild (N = 8)): 10.3 L/h
- CL/F ([1]; single 150 mg migalastat HCl, non-Fabry, Moderate (N = 8)): 6.68 L/h
- CL/F ([1]; single 150 mg migalastat HCl, non-Fabry, Normal (N = 8)): 12.1 L/h
- CL/F ([1]; single 150 mg migalastat HCl, non-Fabry, Severe (N = 8)): 2.67 L/h
- Incidence of adverse events ([1]; single 150 mg migalastat HCl, all renal function groups): comparable across all renal function groups
- increase of mean plasma migalastat AUC0-∞ compared to healthy control subjects ([1]; mild renal impairment): 1.2 fold
- increase of mean plasma migalastat AUC0-∞ compared to healthy control subjects ([1]; moderate renal impairment): 1.8 fold
- increase of mean plasma migalastat AUC0-∞ compared to healthy control subjects ([1]; severe renal impairment): 4.5 fold
- Annualized Rate of Change in eGFRCKD-EPI (Fabry patients [2]; entire duration of migalastat treatment, Patient 1): −0.853 mL/min/1.72 m^2
- Annualized Rate of Change in eGFRCKD-EPI (Fabry patients [2]; entire duration of migalastat treatment, Patient 2): 0.584 mL/min/1.72 m^2
- Annualized Rate of Change in eGFRCKD-EPI (Fabry patients [2]; entire duration of migalastat treatment, Patient 3): −2.838 mL/min/1.72 m^2
- Annualized Rate of Change in eGFRCKD-EPI (Fabry patients [2]; entire duration of migalastat treatment, Patient 4): 0.488 mL/min/1.72 m^2
- Annualized Rate of Change in eGFRCKD-EPI (Fabry patients [2]; entire duration of migalastat treatment, Patient 5): 0.001 mL/min/1.72 m^2
- Annualized Rate of Change in eGFRCKD-EPI (Fabry patients [2]; entire duration of migalastat treatment, Patient 6): −2.179 mL/min/1.72 m^2
- Annualized Rate of Change in eGFRCKD-EPI (Fabry patients [2]; entire duration of migalastat treatment, Patient 7): −0.704 mL/min/1.72 m^2
- Annualized Rate of Change in eGFRCKD-EPI (Fabry patients [2]; entire duration of migalastat treatment, Patient 8): −1.09 mL/min/1.72 m^2
- Annualized Rate of Change in eGFRCKD-EPI (Fabry patients [2]; entire duration of migalastat treatment, Patient 9): −0.443 mL/min/1.72 m^2
- Annualized Rate of Change in eGFRCKD-EPI (Fabry patients [2]; entire duration of migalastat treatment, Patient 10): 0.219 mL/min/1.72 m^2
- Annualized Rate of Change in eGFRCKD-EPI (Fabry patients [2]; entire duration of migalastat treatment, Patient 11): −0.342 mL/min/1.72 m^2
- Annualized Rate of Change in eGFRCKD-EPI (Fabry patients [2]; entire duration of migalastat treatment, Patient 12): −0.871 mL/min/1.72 m^2
- Annualized Rate of Change in eGFRCKD-EPI (Fabry patients [2]; entire migalastat treatment period (mean exposure 8.2 years), Mean of 12 patients): −0.67 mL/min/1.72 m^2
- Mean percent of the dose recovered in urine ([3]; 25 mg): 32.2%
- Mean percent of the dose recovered in urine ([3]; 75 mg): 43.0%
- Mean percent of the dose recovered in urine ([3]; 225 mg): 49.3%
- Mean percent of the dose recovered in urine ([3]; 675 mg): 48.5%
- excretion ([3]; human, in vivo): primarily excreted unchanged in urine
- half-life ([3]; human, plasma, single-dose studies, oral, read-out: mean elimination half-lives (t1/2)): 3.04 to 4.79 h
- accumulation of plasma migalastat ([3]; multiple ascending dose studies): only minimal accumulation
- increase of mean Cmax and AUC0-t with dose ([3]; oral doses from 75 mg to 1250 mg): dose-proportional manner
- time to maximum concentrations ([3]; single-dose studies, oral, range 1 to 6 hrs): approximately 3 hours
- Annualized Change in eGFRCKD-EPI, mean ± SE (Fabry patients [4]; Migalastat→Migalastat 0-24 months, renal subgroup 30 to < 60): +3.2 ± 1.1 mL/min/1.73 m^2
- Annualized Change in eGFRCKD-EPI, mean ± SE (Fabry patients [4]; Migalastat→Migalastat 0-24 months, renal subgroup ≥60): −0.7 ± 0.6 mL/min/1.73 m^2
- Annualized Change in eGFRCKD-EPI, mean ± SE (Fabry patients [4]; Placebo→Migalastat 6-24 months, renal subgroup 30 to < 60): −2.8 ± 2.8 mL/min/1.73 m^2
- Annualized Change in eGFRCKD-EPI, mean ± SE (Fabry patients [4]; Placebo→Migalastat 6-24 months, renal subgroup ≥60): +0.1 ± 0.7 mL/min/1.73 m^2
- mean±SEM annualized rate of change of eGFRCKD-EPI (Fabry patients [4]; mild renal impairment): −0.8±1.01 mL/min/1.73 m^2/year
- mean±SEM annualized rate of change of eGFRCKD-EPI (Fabry patients [4]; moderate renal impairment): −0.7±3.97 mL/min/1.73 m^2/year
- mean±SEM annualized rate of change of eGFRCKD-EPI (Fabry patients [4]; normal renal function): 0.2±0.90 mL/min/1.73 m^2/year
- effect on cardiac repolarization (cardiac repolarization): negative
